Each structure is given as a SMILES string.

As a reminder, the melting point is the temperature of the solid-liquid transition. As to `N#Cc1ccc(Oc2ccc(B(O)O)cc2)cc1`, the melting point was in the range of 194 to 198 °C.

Molecule `COc1ccc2c(c1)COB2O` [C7, 1,3-Dihydro-1-hydroxy-5-methoxy-2,1-benzoxaborole] returned a melting point of 102 to 104 °C.

The molecule `Cc1ccc2c(c1)COB2O` [C8, 1,3-Dihydro-1-hydroxy-5-methyl-2,1-benzoxaborole] had a melting point of 124 to 128 °C.

Consider `OB1OCc2ccc(F)cc21` [C13, 1,3-Dihydro-6-fluoro-1-hydroxy-2,1-benzoxaborole], for which the melting point fell in the range of 110 to 117.5 °C.

`N#Cc1cccc(Oc2ccc3c(c2)B(O)OC3)c1` [C19, 6-(3-Cyanophenoxy)-1,3-dihydro-1-hydroxy-2,1-benzoxaborole] gave a melting point of 146 to 149 °C.

As for `OB1OCc2ccc(Oc3ccc(Cl)cc3)cc21` [C20, 6-(4-Chlorophenoxy)-1,3-dihydro-1-hydroxy-2,1-benzoxaborole], the melting point fell in the range of 119 to 130 °C.

As to `OB1OCc2ccc(Oc3ccccc3)cc21` [C21, 6-Phenoxy-1,3-dihydro-1-hydroxy-2,1-benzoxaborole], the melting point was in the range of 95 to 99 °C.

With `OB1OCc2ccc(Sc3ccccc3)cc21` [C28, 6-Phenylthio-1,3-dihydro-1-hydroxy-2,1-benzoxaborole], the melting point is 121 to 124 °C.

In turn, `OB1OCc2ccc(Oc3ccc(OC(F)(F)F)cc3)cc21` [C29, 6-(4-trifluoromethoxyphenoxy)-1,3-dihydro-1-hydroxy-2,1-benzoxaborole] returned a melting point of 97 to 101 °C.

On to `CN(c1ccc2c(c1)COB2O)S(=O)(=O)c1ccccc1` [C30, 5-(N-Methyl-N-phenylsulfonylamino)-1,3-dihydro-1-hydroxy-2,1-benzoxaborole], for which the melting point was in the range of 85 to 95 °C.

`COc1ccc(Oc2ccc3c(c2)B(O)OC3)cc1` [C31, 6-(4-Methoxyphenoxy)-1,3-dihydro-1-hydroxy-2,1-benzoxaborole] gave a melting point of 126 to 129 °C.

With `COc1ccc(Sc2ccc3c(c2)B(O)OC3)cc1` [C32, 6-(4-Methoxyphenylthio)-1,3-dihydro-1-hydroxy-2,1-benzoxaborole], the melting point lay in the range of 95 to 100 °C.

With `COc1ccc(S(=O)(=O)c2ccc3c(c2)B(O)OC3)cc1` [C33, 6-(4-Methoxyphenylsulfonyl)-1,3-dihydro-1-hydroxy-2,1-benzoxaborole], the melting point fell in the range of 180 to 192 °C.

Consider `CCOC(=O)COc1ccc2c(c1)COB2O` [C41, Ethyl 2-(1-hydroxy-1,3-dihydrobenzo[c][1,2]oxaborol-5-yloxy)acetate], for which the melting point lay within 134 to 137 °C.

Turning to `O=C(O)COc1ccc2c(c1)COB2O` [C42, 2-(1-hydroxy-1,3-dihydrobenzo[c][1,2]oxaborol-5-yloxy)acetic acid], the melting point fell in the range of 163 to 166 °C.

`OB1OCc2ccc(Sc3cccs3)cc21` [C43, 6-(thiophen-2-ylthio)benzo[c][1,2]oxaborol-1(3H)-ol] registered a melting point of 99 to 104 °C.

`OB1OCc2ccc(Sc3ccc(F)cc3)cc21` [C44, 6-(4-fluorophenylthio)benzo[c][1,2]oxaborol-1(3H)-ol] returned a melting point of 135 to 138 °C.

In turn, `CCCCC(=O)c1cccc(COc2ccc3c(c2)COB3O)c1` [C45, 1-(3-((1-hydroxy-1,3-dihydrobenzo[c][1,2]oxaborol-5-yloxy)methyl)phenyl)pentan-1-one] registered a melting point of 96 to 98 °C.

`O=C(COc1ccc2c(c1)COB2O)N1CCCCC1` [C46, 2-(1-hydroxy-1,3-dihydrobenzo[c][1,2]oxaborol-5-yloxy)-1-(piperidin-1-yl)ethanone] displayed a melting point of 158 to 163 °C.

Consider `O=C(COc1ccc2c(c1)COB2O)N1CCN(c2ncccn2)CC1` [C47, 2-(1-hydroxy-1,3-dihydrobenzo[c][1,2]oxaborol-5-yloxy)-1-(4-(pyrimidin-2-yl)piperazin-1-yl)ethanone], for which the melting point was in the range of 190 to 195 °C.

As for `OB1OCc2ccc(N3CCN(c4ccccn4)CC3)cc21` [C48, 6-(4-(pyridin-2-yl)piperazin-yl)benzo[c][1,2]oxaborol-1(3H)-ol], the melting point is 135 to 138 °C.

As to `CN(C)c1ccc2c(c1)B(O)OC2` [C51, 6-(dimethylamino)benzo[c][1,2]oxaborol-1(3H)-ol], the melting point was in the range of 120 to 123 °C.

Consider `O=C(Nc1ccc2c(c1)B(O)OC2)c1ccccc1` [C52, N-(1-hydroxy-1,3-dihydrobenzo[c][1,2]oxaborol-6-yl)benzamide], for which the melting point is 186 to 193 °C.

The molecule `OB1OCc2ccc(N3CCN(c4ccccc4)CC3)cc21` [C53, 6-(4-phenylpiperazin-1-yl)benzo[c][1,2]oxaborol-1(3H)-ol] returned a melting point of 159 to 161 °C.

In turn, `OB1OCc2ccc(-n3ccc4ccccc43)cc21` [C55, 6-(1H-indol-1-yl)benzo[c][1,2]oxaborol-1(3H)-ol] came in with a melting point of 135 to 140 °C.

In turn, `OB1OCc2ccc(N3CCOCC3)cc21` [C56, 6-morpholinobenzo[c][1,2]oxaborol-1(3H)-ol] yielded a melting point of 128 to 132 °C.

The molecule `O=[N+]([O-])c1cc2c(cc1F)COB2O` [C58, 5-fluoro-6-nitrobenzo[c][1,2]oxaborol-1(3H)-ol] had a melting point of 162 to 167 °C.

With `OCc1cc2c(cc1Br)COB2O` [C59, 5-bromo-6-(hydroxymethyl)benzo[c][1,2]oxaborol-1(3H)-ol], the melting point is > 257 °C.

On to `OB1OCc2cc3c(cc21)COB3O` [C60, 3,7-dihydro-1,5-dihydroxy-1H,3H-Benzo[1,2-c:4,5-c′]bis[1,2]oxaborole], for which the melting point is > 250 °C.

On to `O=S(=O)(Nc1ccc2c(c1)B(O)OC2)c1ccccc1` [C62, N-(1-hydroxy-1,3-dihydrobenzo[c][1,2]oxaborol-6-yl)benzenesulfonamide], for which the melting point is 175 to 184 °C.

`CC(=O)Nc1ccc2c(c1)B(O)OC2` [C63, N-(1-hydroxy-1,3-dihydrobenzo[c][1,2]oxaborol-6-yl)acetamide] had a melting point of 176 to 185 °C.

As to `OCc1cccc2c1B(O)OC2` [C64, 7-(hydroxymethyl)benzo[c][1,2]oxaborol-1(3H)-ol], the melting point lay in the range of 241 to 250 °C.

For the molecule `Cc1cccc2c1B(O)OC2` [C65, 7-methylbenzo[c][1,2]oxaborol-1(3H)-ol], the melting point was in the range of 107 to 111 °C.

`OB1OCc2ccc(-n3cc(Sc4ccccc4)c4ccccc43)cc21` [C66, 6-(3-(phenylthio)-1H-indol-1-yl)benzo[c][1,2]oxaborol-1(3H)-ol] returned a melting point of 159 to 163 °C.

Molecule `N#CCCSc1cn(-c2ccc3c(c2)B(O)OC3)c2ccccc12` [C67, 3-(1-(1-hydroxy-1,3-dihydrobenzo[c][1,2]oxaborol-6-yl)-1H-indol-3-ylthio)propanenitrile] had a melting point of 135 to 141 °C.

In turn, `COc1ccc2c(ccn2-c2ccc3c(c2)B(O)OC3)c1` [C68, 6-(5-methoxy-1H-indol-1-yl)benzo[c][1,2]oxaborol-1(3H)-ol] registered a melting point of 120 to 124 °C.

As to `OB1OCc2cc3c(cc21)OCO3` [C69, 5,6-methylenedioxybenzo[c][1,2]oxaborol-1(3H)-ol.], the melting point was in the range of 185 to 189 °C.

On to `Nc1cc2c(cc1F)COB2O` [C70, 6-amino-5-fluorobenzo[c][1,2]oxaborol-1(3H)-ol], for which the melting point lay in the range of 142 to 145 °C.

`OB1OCc2cc(F)c(NCc3ccccc3)cc21` [C71, 6-(benzylamino)-5-fluorobenzo[c][1,2]oxaborol-1(3H)-ol] yielded a melting point of 159 to 164 °C.

Molecule `COc1ccc2c(c1)c(Sc1ccccc1)cn2-c1ccc2c(c1)B(O)OC2` [C72, 6-(5-methoxy-3-(phenylthio)-1H-indol-1-yl)benzo[c][1,2]oxaborol-1(3H)-ol] came in with a melting point of 135 to 141 °C.

In turn, `COc1ccc2c(c1)c(SCCC#N)cn2-c1ccc2c(c1)B(O)OC2` [C73, 3-(1-(1-hydroxy-1,3-dihydrobenzo[c][1,2]oxaborol-6-yl)-5-methoxy-1H-indol-3-ylthio)propanenitrile] returned a melting point of 149 to 154 °C.

`N#Cc1ccc(Oc2cccc3c2B(O)OC3)cc1` [C74, 4-(1-hydroxy-1,3-dihydrobenzo[c][1,2]oxaborol-7-yloxy)benzonitrile] registered a melting point of 148 to 153 °C.

Regarding `OB1OCc2ccc(-n3ccc4cc(Cl)ccc43)cc21` [C75, 6-(5-chloro-1H-indol-1-yl)benzo[c][1,2]oxaborol-1(3H)-ol], the melting point lay within 149 to 154 °C.

As to `N#CCCSc1cn(-c2ccc3c(c2)B(O)OC3)c2ccc(Cl)cc12` [C76, 3-(5-chloro-1-(1-hydroxy-1,3-dihydrobenzo[c][1,2]oxaborol-6-yl)-1H-indol-3-ylthio)propanenitrile], the melting point was > 225 °C.

`OB1OCc2ccc(NCc3ccccc3)cc21` [C77, 6-(benzylamino)benzo[c][1,2]oxaborol-1(3H)-ol] gave a melting point of 126 to 133 °C.

As to `OB1OCc2ccc(N(Cc3ccccc3)Cc3ccccc3)cc21` [C78, 6-(dibenzylamino)benzo[c][1,2]oxaborol-1(3H)-ol], the melting point lay within 115 to 123 °C.

As to `OB1OCc2ccc(-n3cc(Sc4ccccc4)c4cc(Cl)ccc43)cc21` [C80, 6-(5-chloro-3-(phenylthio)-1H-indol-1-yl)benzo[c][1,2]oxaborol-1(3H)-ol], the melting point was in the range of 145 to 151 °C.

The molecule `OB1OCc2cccc(F)c21` [C86, 7-fluorobenzo[c][1,2]oxaborol-1(3H)-ol] returned a melting point of 120 to 124 °C.

Regarding `OB1OCc2ccc(Oc3ccc(C(F)(F)F)cc3)cc21` [C87, 6-(4-(trifluoromethyl)phenoxy)benzo[c][1,2]oxaborol-1(3H)-ol], the melting point fell in the range of 98 to 105 °C.

`OB1OCc2ccc(Sc3ccc(Cl)cc3)cc21` [C88, 6-(4-chlorophenylthio)benzo[c][1,2]oxaborol-1(3H)-ol]: the melting point is 157 to 161 °C.

Turning to `[O-][S+](c1ccc(Cl)cc1)c1ccc2c(c1)B(O)OC2` (stereo not shown) [C89, 6-(4-chlorophenylsulfinyl)benzo[c][1,2]oxaborol-1(3H)-ol], the melting point fell in the range of 154 to 161 °C.

`O=S(=O)(c1ccc(Cl)cc1)c1ccc2c(c1)B(O)OC2` [C90, 6-(4-chlorophenylsulfonyl)benzo[c][1,2]oxaborol-1(3H)-ol] returned a melting point of 157 to 163 °C.

The values above are taken from patent US9682092B2, “Boron-containing small molecules as anti-inflammatory agents” (ANACOR PHARMACEUTICALS, INC., priority 2006, dated 2017).
